Calls of active or inactive are those of the source. No rule for the calls is given here.

The nature of the first experiment: viability loss in LCL cells – cell-based, plate reader, dry powder, set 2, cytotoxicity control, dose response (AID 624367). Conditions: Lymphoblastoid cell line (LCL) cytotoxicity, plate reader; at 30 µM (top of the series).
On to `Cc1noc(C)c1S(=O)(=O)Nc1ccc2c(c1)C(=O)N([C@@H](C)CO)C[C@@H](C)[C@H](CN(C)Cc1ccc(C(F)(F)F)cc1)OCCCC[C@H](C)O2`, for which the activity change, negative = cytotoxicity is -0.638% (inactive).

Turning to `Cc1noc(C)c1S(=O)(=O)Nc1ccc2c(c1)C(=O)N([C@@H](C)CO)C[C@H](C)[C@H](CN(C)Cc1ccc(C(F)(F)F)cc1)OCCCC[C@@H](C)O2`, the activity change, negative = cytotoxicity is -7.54% (inactive).

Regarding `CN(C)C(=O)c1cccc(-c2cccc(-c3nc(C(=O)NCc4ccccc4)cc4c3[C@@H](CCO)N([S@](=O)C(C)(C)C)C4)c2)c1`, the activity change, negative = cytotoxicity was 8.17% (inactive).

The same experiment, now with this note: Lymphoblastoid cell line (LCL) cytotoxicity, plate reader; at 35 µM (top of the series).
Turning to `CN(C)c1ccc2c(c1)[C@@H]1C[C@@H](CC(=O)NCc3ccc(Oc4ccccc4)cc3)O[C@@H](CO)[C@@H]1O2`, the activity change, negative = cytotoxicity was 8.56% (inactive).

For the compound `Cc1noc(C)c1S(=O)(=O)Nc1ccc2c(c1)C(=O)N([C@H](C)CO)C[C@H](C)[C@H](CN(C)Cc1ccc(C(F)(F)F)cc1)OCCCC[C@H](C)O2`, the activity change, negative = cytotoxicity is -5.76% (inactive).

As for `COc1ccc(CNC(=O)c2cc3c(c(-c4cccc(-c5ccc(C#N)cc5)c4)n2)[C@@H](CCO)N([S@](=O)C(C)(C)C)C3)cc1`, the activity change, negative = cytotoxicity is -0.743% (inactive).

For the compound `C/C=C/c1cccc(-c2nc(C(=O)Nc3nccs3)cc3c2[C@@H](CCO)N(C(=O)NC(C)C)C3)c1`, the activity change, negative = cytotoxicity was 3.79% (inactive).

Consider `C[C@H]1CN([C@@H](C)CO)C(=O)c2cc(C#Cc3ccccc3F)cnc2O[C@@H]1CN(C)C(=O)C1CCCCC1`, for which the activity change, negative = cytotoxicity is 8.49% (inactive).

As for `C[C@H](NC(=O)C[C@H]1C=C[C@H](NC(=O)Cc2ccccn2)[C@H](CO)O1)c1ccccc1`, the activity change, negative = cytotoxicity is 10.5% (inactive).

Regarding `C[C@@H](NC(=O)C[C@@H]1C=C[C@@H](NC(=O)Cc2ccccn2)[C@@H](CO)O1)c1ccccc1`, the activity change, negative = cytotoxicity is -0.658% (inactive).

Consider `C[C@@H]1CN([C@H](C)CO)S(=O)(=O)c2ccc(C#C[C@@H](C)O)cc2O[C@H]1CN(C)Cc1ccc(-c2ccccc2)cc1`, for which the activity change, negative = cytotoxicity was -3.17% (inactive).

As for `COc1cccc(-c2cccc(-c3nc(C(=O)NCC(F)(F)F)cc4c3[C@H](CCO)N([S@@](=O)C(C)(C)C)C4)c2)c1`, the activity change, negative = cytotoxicity was -12.4% (inactive).

Turning to `C[C@@H]1CN([C@H](C)CO)S(=O)(=O)c2ccc(/C=C/c3ccccc3)cc2O[C@H]1CN(C)C(=O)NC1CCCCC1`, the activity change, negative = cytotoxicity is -0.754% (inactive).

Regarding `C[C@@H]1CN([C@@H](C)CO)C(=O)c2c(c3ccccc3n2C)-c2ccccc2CO[C@@H]1CN(C)C(=O)Nc1ccc(F)cc1`, the activity change, negative = cytotoxicity is -5.86% (inactive).

Take `COc1cccc(S(=O)(=O)N(C)C[C@@H]2Oc3cc(C4=CCCCC4)ccc3S(=O)(=O)N([C@H](C)CO)C[C@H]2C)c1`: the activity change, negative = cytotoxicity is 7.75% (inactive).

For the compound `COc1ccccc1C#Cc1ccc2c(c1)O[C@H](CN(C)Cc1cccnc1)[C@H](C)CN([C@@H](C)CO)S2(=O)=O`, the activity change, negative = cytotoxicity is -1.62% (inactive).

With `C[C@H](NC(=O)C[C@H]1C=C[C@H](NC(=O)Cc2ccccn2)[C@@H](CO)O1)c1ccccc1`, the activity change, negative = cytotoxicity is 0.993% (inactive).

For `Cc1cc(C(=O)Nc2ccc3c(c2)C(=O)N(C)[C@@H]2CC[C@@H](CC(=O)NCc4ccc(-c5ccccc5)cc4)O[C@H]2CO3)no1`, the activity change, negative = cytotoxicity is -5.25% (inactive).

For `C[C@@H](NC(=O)C[C@@H]1C=C[C@H](NC(=O)Cc2ccccn2)[C@H](CO)O1)c1ccccc1`, the activity change, negative = cytotoxicity was 6.45% (inactive).

Take `CC(C)c1ccc(NC(=O)C[C@H]2CC[C@H]3[C@@H](COc4ccc(NC(=O)Nc5ccc(F)c(F)c5)cc4C(=O)N3C)O2)cc1`: the activity change, negative = cytotoxicity was -0.979% (inactive).

Regarding `C[C@@H](NC(=O)C[C@H]1C=C[C@H](NC(=O)Cc2ccccn2)[C@H](CO)O1)c1ccccc1`, the activity change, negative = cytotoxicity is 1.04% (inactive).

Turning to `CS(=O)(=O)Nc1ccc2c(c1)[C@H]1C[C@@H](CC(=O)NCC3CC3)O[C@@H](CO)[C@H]1O2`, the activity change, negative = cytotoxicity is -1.05% (inactive).

On to `Cc1noc(C)c1S(=O)(=O)Nc1ccc2c(c1)C(=O)N([C@H](C)CO)C[C@@H](C)[C@H](CN(C)Cc1ccc(C(F)(F)F)cc1)OCCCC[C@@H](C)O2`, for which the activity change, negative = cytotoxicity is -9.24% (inactive).

Consider `Cc1noc(C)c1S(=O)(=O)Nc1ccc2c(c1)C(=O)N([C@H](C)CO)C[C@@H](C)[C@H](CN(C)Cc1ccc(C(F)(F)F)cc1)OCCCC[C@H](C)O2`, for which the activity change, negative = cytotoxicity is -6.93% (inactive).

For `Cc1noc(C)c1S(=O)(=O)Nc1ccc2c(c1)C(=O)N([C@@H](C)CO)C[C@H](C)[C@@H](CN(C)Cc1ccc(C(F)(F)F)cc1)OCCCC[C@H](C)O2`, the activity change, negative = cytotoxicity is -1.76% (inactive).

Consider `O=C(Cc1ccccn1)NCC[C@H]1CC[C@H](NC(=O)Nc2ccc(Cl)cc2)[C@H](CO)O1`, for which the activity change, negative = cytotoxicity was 7.55% (inactive).

Take `C[C@@H](NC(=O)C[C@H]1C[C@@H]2c3cc(NC(=O)c4cccnc4)ccc3O[C@@H]2[C@@H](CO)O1)c1ccccc1`: the activity change, negative = cytotoxicity was -0.579% (inactive).

With `CC(C)(C)[S@@](=O)N1Cc2cc(C(=O)NCc3ccccn3)nc(-c3cccc(-c4ccccc4F)c3)c2[C@H]1CCO`, the activity change, negative = cytotoxicity is -1.27% (inactive).

In the case of `O=C(C[C@@H]1CC[C@H]2[C@@H](COC[C@H](O)CN2Cc2ccc(Oc3ccccc3)cc2)O1)N1CCc2ccccc2C1`, the activity change, negative = cytotoxicity is -13.4% (inactive).

Take `Cc1noc(C)c1S(=O)(=O)Nc1ccc2c(c1)C(=O)N([C@H](C)CO)C[C@H](C)[C@@H](CN(C)Cc1ccc(C(F)(F)F)cc1)OCCCC[C@H](C)O2`: the activity change, negative = cytotoxicity was -4.42% (inactive).

As to `C[C@H](CO)N1C[C@H](C)[C@@H](CN(C)S(=O)(=O)c2cccc(F)c2)Oc2ncc(C#CC3CCCCC3)cc2C1=O`, the activity change, negative = cytotoxicity is 4.17% (inactive).

Regarding `CCC(=O)N1Cc2cc(C(=O)Nc3nccs3)nc(-c3cccc(-c4ccccc4OC)c3)c2[C@H]1CCO`, the activity change, negative = cytotoxicity is -2.48% (inactive).

With `COc1ccccc1C#Cc1cnc2c(c1)C(=O)N([C@@H](C)CO)C[C@H](C)[C@@H](CN(C)C(=O)c1ccc3c(c1)OCO3)O2`, the activity change, negative = cytotoxicity is 16.2% (inactive).

Turning to `C[C@@H]1CN([C@@H](C)CO)C(=O)c2c(c3ccccc3n2C)-c2ccccc2CO[C@H]1CN(C)C(=O)Nc1ccc(F)cc1`, the activity change, negative = cytotoxicity is 3.34% (inactive).

On to `C[C@H](NC(=O)C[C@@H]1C=C[C@@H](NC(=O)Cc2ccccn2)[C@H](CO)O1)c1ccccc1`, for which the activity change, negative = cytotoxicity was 3.26% (inactive).

Turning to `COc1ccccc1C#Cc1ccc2c(c1)O[C@H](CN(C)Cc1cccnc1)[C@H](C)CN([C@H](C)CO)S2(=O)=O`, the activity change, negative = cytotoxicity was -2.03% (inactive).

For the compound `C[C@H](NC(=O)C[C@@H]1C=C[C@H](NC(=O)Cc2ccccn2)[C@@H](CO)O1)c1ccccc1`, the activity change, negative = cytotoxicity is 4.27% (inactive).

On to `CN1C(=O)c2cc(NC(=O)Cc3cccs3)ccc2OC[C@@H]2O[C@H](CC(=O)NCc3ccc(-c4ccccc4)cc3)CC[C@H]21`, for which the activity change, negative = cytotoxicity is -7.27% (inactive).

Turning to `C[C@H]1CN([C@@H](C)CO)C(=O)Cc2cc(NC(=O)Cc3ccccc3)ccc2O[C@H]1CN(C)Cc1ccc(C(F)(F)F)cc1`, the activity change, negative = cytotoxicity is 2.21% (inactive).

Regarding `C[C@@H]1CN([C@@H](C)CO)C(=O)Cc2cc(NC(=O)Cc3ccccc3)ccc2O[C@H]1CN(C)Cc1ccc(C(F)(F)F)cc1`, the activity change, negative = cytotoxicity is -7.42% (inactive).

On to `COc1ccc(S(=O)(=O)N(C)C[C@@H]2Oc3ncc(/C=C/c4ccccc4)cc3C(=O)N([C@@H](C)CO)C[C@H]2C)cc1`, for which the activity change, negative = cytotoxicity is -4% (inactive).

In the case of `N#C[C@H]1[C@H](c2ccc(C#Cc3ccccc3F)cc2)[C@@H](CO)N1C(=O)c1cccnc1`, the activity change, negative = cytotoxicity was 3.23% (inactive).

For `O=C(Cc1ccccn1)NCC[C@H]1CC[C@@H](NC(=O)Nc2ccc(Cl)cc2)[C@@H](CO)O1`, the activity change, negative = cytotoxicity was -2.19% (inactive).

Regarding `COc1ccccc1C#Cc1ccc2c(c1)O[C@H](CN(C)Cc1cccnc1)[C@@H](C)CN([C@@H](C)CO)S2(=O)=O`, the activity change, negative = cytotoxicity is -6.79% (inactive).

Consider `O=C(Cc1ccccn1)NCC[C@@H]1CC[C@H](NC(=O)Nc2ccc(Cl)cc2)[C@@H](CO)O1`, for which the activity change, negative = cytotoxicity was 6.35% (inactive).

As for `O=C(Cc1ccccn1)NCC[C@H]1CC[C@H](NC(=O)Nc2ccc(Cl)cc2)[C@@H](CO)O1`, the activity change, negative = cytotoxicity is 3.54% (inactive).

Turning to `CN1C(=O)c2cc(NC(=O)c3ccc(C(F)(F)F)cc3)ccc2OC[C@@H]2O[C@H](CC(=O)NC3Cc4ccccc4C3)CC[C@H]21`, the activity change, negative = cytotoxicity is -1.04% (inactive).

Take `Cc1noc(C)c1S(=O)(=O)Nc1ccc2c(c1)C(=O)N([C@H](C)CO)C[C@H](C)[C@@H](CN(C)Cc1ccc(C(F)(F)F)cc1)OCCCC[C@@H](C)O2`: the activity change, negative = cytotoxicity is -2.6% (inactive).

As to `COc1cccc(S(=O)(=O)N(C)C[C@H]2Oc3cc(C4=CCCCC4)ccc3S(=O)(=O)N([C@@H](C)CO)C[C@@H]2C)c1`, the activity change, negative = cytotoxicity was 4.96% (inactive).

On to `COc1ccccc1CNC(=O)C[C@H]1C[C@@H]2c3cc(NC(=O)CN(C)C)ccc3O[C@@H]2[C@@H](CO)O1`, for which the activity change, negative = cytotoxicity is 2.15% (inactive).

Regarding `C[C@H](CO)N1C[C@H](C)[C@@H](CN(C)C(=O)Nc2ccc(F)cc2)OCc2ccccc2-c2c(n(C)c3ccccc23)C1=O`, the activity change, negative = cytotoxicity was -2.81% (inactive).

For the compound `CO[C@H](CN(C)S(=O)(=O)c1cccc(Cl)c1)[C@@H](C)CN([C@H](C)CO)S(=O)(=O)c1ccc(Cl)cc1`, the activity change, negative = cytotoxicity was -9.42% (inactive).

On to `Cc1noc(C)c1S(=O)(=O)Nc1ccc2c(c1)C(=O)N([C@H](C)CO)C[C@H](C)[C@H](CN(C)Cc1ccc(C(F)(F)F)cc1)OCCCC[C@@H](C)O2`, for which the activity change, negative = cytotoxicity is -2.12% (inactive).

`C[C@H](NC(=O)C[C@H]1C=C[C@@H](NC(=O)Cc2ccccn2)[C@@H](CO)O1)c1ccccc1`: the activity change, negative = cytotoxicity was 6.04% (inactive).

The record behind these values is PubChem BioAssay AID624367 (Broad Institute, 2012).
